Legend:
[1] = tested on: B16F10 melanoma lung metastasis; assay: In vivo lung metastasis assay, B16F10 melanoma; conditions: C57BL/6 mice, dose titration; FIG. 12
Method: (§1) In vivo lung metastasis assay. 5×10^5 CT26 cells in 0.2 ml PBS were injected i.v. into the tail vein. Glycolipid or vehicle control (0.00025% Tween 20) was injected i.p. (in 0.2 ml PBS) within one hour after tumor challenge. Mice were sacrificed 12-16 days after tumor challenge, and lungs were stained and fixed and metastases were enumerated as previously described (Park, J. M., et al., International J. of Cancer, 114:80-87 (2004)). The same protocol was used for the B16F10 cell line, except that lungs were perfused with PBS instead of ink before removal.

BALB/c splenocytes = assay: In vitro cytokine assay (ELISA); format: cell-based, BALB/c mice; conditions: 48 hours
Method: In vitro cytokine assay. Splenocytes (8×10^5/well of 96 well plates) from BALB/c mice were stimulated with glycolipid or solvent control for 48 hours. Supernatants were collected, and the concentration of IFN-γ, IL-4, or IL-13 was determined by ELISA.

CT26 lung metastasis = assay: In vivo lung metastasis assay, CT26 colon carcinoma; set-up: species or system BALB/c mice
Method: as §1
For CD8^+T and NK cell depletion, mice were treated with anti-CD8 (200 μg/injection), anti-asialo GM1 (25 μl/injection), or control antibodies 1 day prior to tumor challenge, the day of challenge, and 5 and 10 days following tumor challenge. CD8^+T and NK cell depletion of >90% was confirmed by flow cytometric staining for CD8 (clone 53-6.7, BD Biosciences, Rockville, Md.) and pan-NK cell marker (clone DX5, eBioscience, San Diego, Calif.) at the conclusion of the experiment. For Gr-1^+ cell depletion, mice were injected i.p. with 100, 50, or 1 μg anti-Gr-1 antibody, 16 and 40 hours after tumor challenge. CD11b^+Gr-1^high cell depletion of >99% and CD11b^+Gr-1^intermediate cell depletion of >80% by 100 μg of anti-Gr-1 antibodies, was confirmed by flow cytometric staining for CD11b (clone M1/70, eBioscience), Gr-1 (clone RB6-8C5, BD Biosciences), Ly-6C (clone AL-21, BD Biosciences) and Ly6G. (clone 1A8, BD Biosciences). Where indicated, mice received 0.2 mg L-NAME or D-NAME i.p. twice per day on the day of tumor challenge, the day after tumor challenge, and once daily for 2 weeks after tumor injection. Blockade of TNF-α was achieved by administration of 100 μg of etanercept every other day, beginning immediately following tumor challenge, per the method of Fichtner-Feigl, S., et al., Cancer Res., 68:3467-3475 (2008). For PPARγ inhibition, mice were treated 0.15 mg/ml GW9662 (200 μL i.p.) or vehicle control (0.5% DMSO in PBS) immediately following tumor challenge, and then 30 minutes prior to glycolipid administration, via the method of Coste, A., et al., J. Immunol., 180:4939-4947 (2008).

iNKT cells = assay: In vitro iNKT activation (CFSE dilution, splenocytes); format: cell-based, mice
Method: In vitro iNKT activation. Splenocytes were harvested from mice (n=3), and erythrocytes were depleted with ACK Lysis Buffer (Lonza, Walkersville, Md.). Cells were labeled with 0.1 μM CFSE (Invitrogen, Carlsbad, Calif.) for 15 minutes at room temperature. Labeled cells (4×10^6 cells/well of 24-well plate) were stimulated for 3.5 days with glycolipid or vehicle control. At the end of the culture, cells were harvested and stained with PBS57-loaded CD1d tetramer (NIH Tetramer Facility) and anti-CD3 (clone 145-2C11, Biolegend). The fluorescence of stained cells was measured by FACSCalibur (BD Biosciences), and data were analyzed by Flowjo (Tree Star, Inc., Ashland, Oreg.).

[2] = tested on: DN32.D3 NKT cell hybridoma; assay: Plate-bound mCD1d hybridoma stimulation assay, DN32.D3; format: cell-based, mouse
Method: (§2) Plate-bound mCD1d hybridoma stimulation assay. Protocol was modified from that of Gumperz et al. (Gumperz, J. E., et al., Immunity, 12(2):211-221 (2000)). mCD1d dimer/Ig fusion protein (BD Biosciences) was incubated with the indicated concentrations of glycolipid in pH 5 sodium acetate buffer containing 0.01% Tween20 and 45 μg/ml saposin C (provided by Nico Tjandra and Motoshi Suzuki [both from National Heart, Lung, and Blood Institute, NIH, Bethesda, Md., USA]) overnight at 37° C. The mCD1d dimers loaded with glycolipid were loaded onto 96-well Protein G Plates (Pierce, Rockford, Ill.) and incubated for 48 hours at 37° C. The plates were washed with PBS and tissue culture media to remove anything not coated on the plates. 1×10^5 24.9. E or DN32.D3 iNKT hybridoma cells were added to each well and incubated at 37° C. and 5% CO2 for 24 hours. Supernatants were collected and analyzed for IL-2 by ELISA.

[3] = tested on: 24.9.E NKT cell hybridoma; assay: Plate-bound mCD1d hybridoma stimulation assay, 24.9.E; format: cell-based, mouse
Method: as §2

activated NKT cells = assay: Anergy: re-stimulation of splenocytes one month after in vivo treatment; set-up: species or system mice
Method: FIG. 13A is a graph showing splenocyte proliferation measured by ^3H-thymidine incorporation during the final 8 hours of a 72-hour culture after being re-stimulated in culture. Pretreatment with α-GalCer induces anergy but pretreatment with β-ManCer induces much less anergy.
FIG. 13B is a graph showing the amount of IFN-γ produced by the splenocyte culture after 48 hours of re-stimulation.
It is known that α-GalCer induces strong anergy of activated NKT cells for over a month after in vivo stimulation. […] Mice were treated with α-GalCer, β-ManCer, or vehicle, and one month later, splenocytes were re-stimulated, and the degree of activation was measured by proliferation and IFN-γ production.

SMILES: CCCCCCCCCCCCCCCCCCCCCCCCCC(=O)N[C@@H](COC1OC(CO)C(O)C(O)C1O)[C@H](O)[C@H](O)CCCCCCCCCCCCCC (stereo partly drawn) [β-ManCer, 2-hexacosanoylamino-1-O-β-mannopyranosyl-D-ribo-1,3,4-octadecanetriol]
- Tumor protection against B16F10 melanoma lung metastasis, relative to α-GalCer [1]: at least as potent
- Cytokine production in vitro (overall) (BALB/c splenocytes; IFN-γ, IL-4, IL-13): least cytokine production
- Cytokines at concentrations less than 30 nM (BALB/c splenocytes; glycolipid less than 30 nM): no cytokines detected
- Effect of TNF-α blockade (TNF-αR-Fc, etanercept) on protection (CT26 lung metastasis; 100 μg etanercept every other day, FIG. 10C): completely reversed the protection
- Effect of PPARγ inhibition with GW 9662 on induced protection (CT26 lung metastasis; 0.15 mg/ml GW9662 200 μL i.p., 50 pmoles glycolipid, FIG. 2C): no effect
- Potency of tumor protection relative to α-ManCer and β-GalCer (CT26 lung metastasis; CT26 lung metastasis, 50 vs 5,000 pmoles): 100 fold
- Fewer lung nodules compared to vehicle control mice (CT26 lung metastasis; IFN-γ knockout mice, 50 pmoles, p=0.0079, FIG. 9A): 50%
- Protection in IFN-γ−/− mice when NOS was inhibited (CT26 lung metastasis; IFN-γ−/− mice, L-NAME, FIG. 10B): completely lost
- Tumor protection in Jα18KO mice (lack only iNKT cells) (CT26 lung metastasis; Jα18KO BALB/c mice, FIG. 2B): All protection was lost
- Protection against CT26 lung metastasis (CT26 lung metastasis; WT BALB/c, glycolipid i.p. within one hour after tumor challenge, β-ManCer 50 pmoles, FIG. 2A): strong protection
- Effect of NOS inhibition (L-NAME vs D-NAME) on tumor protection (CT26 lung metastasis; WT mice, 50 pmoles glycolipid, 0.2 mg L-NAME i.p., FIG. 6, 10A): significantly inhibited protection
- Effect of depletion of Gr-1+ cells on tumor protection (CT26 lung metastasis; anti-Gr-1 antibodies, FIG. 10D): no effect
- Rank order of tumor protection (CT26 lung metastasis; dose of 50 pmoles, FIG. 2D): similarly protective
- Inhibition of iNKT proliferation by CD1d-blocking antibody (iNKT cells; 3.5-day stimulation): 86%
- Proliferation of iNKT cells (CFSE dilution) (iNKT cells; 3.5-day stimulation of mouse splenocytes, FIG. 3): 40%
- Proliferation of iNKT cells with CD1d-blocking antibody (iNKT cells; 3.5-day stimulation, CD1d-blocking antibody): 5.4%
- Increase in IL-2 production over unloaded mCD1d ([2]; DN32.D3): over 500 fold
- IL-2 production, glycolipid-loaded mCD1d dimers ([2]; DN32.D3, 24 hours, no APCs, FIG. 5): able to induce IL-2 production
- IL-2 production, soluble glycolipid in the absence of CD1d ([2]; DN32.D3, FIG. 5): failed to induce IL-2 production above background
- Increase in IL-2 production over unloaded mCD1d ([3]; 24.9.E): 25 fold
- IL-2 production, glycolipid-loaded mCD1d dimers ([3]; 24.9.E, 24 hours, no APCs, FIG. 5): able to induce IL-2 production
- IL-2 production, soluble glycolipid in the absence of CD1d ([3]; 24.9.E, FIG. 5): failed to induce IL-2 production above background
- IL-2 production, difference (less) versus α-GalCer ([3]; stated for the 24.9.E and DN32.D3 hybridomas together): 10- to 50 fold
- IFN-γ production on re-stimulation, compared to cells from vehicle-treated mice (activated NKT cells; 48 hours of re-stimulation, FIG. 13B): slight reduction
- Splenocyte proliferation on re-stimulation, compared to cells from vehicle-treated mice (activated NKT cells; re-stimulation with α-GalCer or β-ManCer, 3H-thymidine, 72-hour culture, FIG. 13A): slight reduction
